From ChEMBL document CHEMBL1126305, “Synthesis and antiviral properties of (+/-)-5'-noraristeromycin and related purine carbocyclic nucleosides. A new lead for anti-human cytomegalovirus agent design” (1992)
Values after ≈ are worked out from the molar mass of the structure shown.

Legend:
E6SM [1] = experiment: Minimum inhibitory concentration required to reduce virus induced cytopathicity by 50% was determined against vesicular stomatitis virus in E6SM cells; format: functional; conditions: Homo sapiens
Vero [2] = experiment: Minimum inhibitory concentration required to reduce virus induced cytopathicity by 50% was determined against tacaribe virus in Vero cells; format: functional, Homo sapiens; conditions: Chlorocebus sabaeus
Influenza B virus = experiment: (§1) Minimum inhibitory concentration required to reduce virus induced cytopathicity by 50% was determined against influenza B virus in MDCK cells; format: functional
HeLa [3] = experiment: Minimum inhibitory concentration required to reduce virus induced cytopathicity by 50% was determined against polio 1 virus in HeLa cells; format: functional; conditions: Homo sapiens
HeLa [4] = experiment: Minimum inhibitory concentration required to reduce virus induced cytopathicity by 50% was determined against respiratory syncytial virus in HeLa cells; format: functional; conditions: Homo sapiens
E6SM [5] = experiment: Minimum inhibitory concentration required to reduce virus induced cytopathicity by 50% was determined against HSV-2 virus in E6SM cells; format: functional; conditions: Homo sapiens
E6SM [6] = experiment: Minimum inhibitory concentration required to reduce virus induced cytopathicity by 50% was determined against TK- HSV-1 virus in E6SM cells; format: functional; conditions: Homo sapiens
E6SM [7] = experiment: Minimum inhibitory concentration required to reduce virus induced cytopathicity by 50% was determined against vaccinia virus in E6SM cells; format: functional; conditions: Homo sapiens
HeLa [8] = experiment: Minimum inhibitory concentration required to reduce virus induced cytopathicity by 50% was determined against vesicular stomatitis virus in HeLa cells; format: functional; conditions: Homo sapiens
E6SM [9] = experiment: Minimum inhibitory concentration required to reduce virus induced cytopathicity by 50% was determined against HSV-1 virus in E6SM cells; format: functional; conditions: Homo sapiens
HeLa [10] = experiment: Minimum inhibitory concentration required to reduce virus induced cytopathicity by 50% was determined against coxsackie B4 virus in HeLa cells; format: functional; conditions: Homo sapiens
Vero [11] = experiment: (§2) Minimum inhibitory concentration required to reduce virus induced cytopathicity by 50% was determined against parainfluenza 3 virus in Vero cells; format: functional, Homo sapiens; conditions: Chlorocebus sabaeus
HEL [12] = experiment: Minimum inhibitory concentration required to reduce virus induced cytopathicity by 50% was determined against VZV virus in HEL cells; format: functional; conditions: Homo sapiens
Vero [13] = experiment: Minimum inhibitory concentration required to reduce virus induced cytopathicity by 50% was determined against reo type 1 virus in Vero cells; format: functional; conditions: Chlorocebus sabaeus
HEL [14] = experiment: Minimum inhibitory concentration required to reduce virus induced cytopathicity by 50% was determined against TK- VZV virus in HEL cells; format: functional; conditions: Homo sapiens
Homo sapiens = species on record: Homo sapiens; experiment: (§3) Minimum inhibitory concentration required to reduce virus induced cytopathicity by 50% was determined against HCMV virus in HEL cells; format: functional
Vero [15] = experiment: Minimum inhibitory concentration required to reduce virus induced cytopathicity by 50% was determined against junin virus in Vero cells; format: functional; conditions: Chlorocebus sabaeus
Vero [16] = experiment: Minimum inhibitory concentration required to reduce virus induced cytopathicity by 50% was determined against semliki forest virus in Vero cells; format: functional; conditions: Chlorocebus sabaeus
Vero [17] = experiment: Minimum inhibitory concentration required to reduce virus induced cytopathicity by 50% was determined against coxsackie B4 virus in Vero cells; format: functional; conditions: Chlorocebus sabaeus
Vero [18] = experiment: Minimum inhibitory concentration required to reduce virus induced cytopathicity by 50% was determined against sindbis virus in Vero cells; format: functional; conditions: Chlorocebus sabaeus
Vero [19] = experiment: Minimum inhibitory concentration required to reduce virus induced cytopathicity by 50% was determined against measles virus in Vero cells; format: functional; conditions: Chlorocebus sabaeus
Influenza A virus = experiment: (§4) Minimum inhibitory concentration required to reduce virus induced cytopathicity by 50% was determined against influenza A virus in MDCK cells; format: functional
MDCK [20] = experiment: as §1; format: functional; conditions: Canis lupus familiaris
MDCK [21] = experiment: as §4; format: functional; conditions: Canis lupus familiaris
HEL [22] = experiment: as §3; format: functional; conditions: Homo sapiens
Vero [23] = experiment: as §2; format: functional; conditions: Chlorocebus sabaeus

Structure (SMILES) | MIC (E6SM [1]) [µg/mL] | MIC (Vero [2]) [µg/mL] | MIC (HeLa [3]) [µg/mL] | MIC (HeLa [4]) [µg/mL] | MIC (E6SM [5]) [µg/mL] | MIC (E6SM [6]) [µg/mL] | MIC (E6SM [7]) [µg/mL] | MIC (HeLa [8]) [µg/mL] | MIC (E6SM [9]) [µg/mL] | MIC (HeLa [10]) [µg/mL] | MIC (Vero [11]) [µg/mL] | MIC (HEL [12]) [µg/mL] | MIC (Vero [13]) [µg/mL] | MIC (HEL [14]) [µg/mL] | MIC (Homo sapiens) [µg/mL] | MIC (Vero [15]) [µg/mL] | MIC (Vero [16]) [µg/mL] | MIC (Vero [17]) [µg/mL] | MIC (Vero [18]) [µg/mL] | MIC (Vero [19]) [µg/mL] | other results
Oc1ncnc2c1ncn2C1C[C@H](O)[C@H](O)[C@@H]1O (some centres undefined) | > 300 | > 100 | > 400 | > 100 | 300 (≈ 1190 µM) | 200 (≈ 793 µM) | > 300 | > 400 | 300 (≈ 1190 µM) | > 400 | > 200 | 200 (≈ 793 µM) | > 200 | 250 (≈ 991 µM) | 250 (≈ 991 µM) | > 100 | > 200 | > 200 | > 200 | > 100 | MIC (Influenza B virus): > 100 µg/mL; MIC (Influenza A virus): > 100 µg/mL
Nc1nc(N)c2ncn(C3C[C@H](O)[C@H](O)[C@@H]3O)c2n1 (some centres undefined) | 2 (≈ 7.51 µM) | 100 (≈ 376 µM) | > 400 | 50 (≈ 188 µM) | > 300 | > 200 | 15 (≈ 56.3 µM) | 70 (≈ 263 µM) | 300 (≈ 1130 µM) | > 400 | 20 (≈ 75.1 µM) | 230 (≈ 864 µM) | 10 (≈ 37.6 µM) | 165 (≈ 620 µM) | 250 (≈ 939 µM) | 85 (≈ 319 µM) | > 200 | > 200 | > 200 | 20 (≈ 75.1 µM) | MIC (MDCK [20]): > 100 µg/mL; MIC (MDCK [21]): > 100 µg/mL
Nc1nc(O)c2ncn(C3C[C@H](O)[C@H](O)[C@@H]3O)c2n1 (some centres undefined) | > 400 | > 100 | > 200 | > 100 | > 400 | > 300 | > 400 | > 400 | 300 (≈ 1120 µM) | > 400 | > 200 | 225 (≈ 842 µM) | > 200 | 235 (≈ 879 µM) | 250 (≈ 935 µM) | > 100 | > 200 | > 200 | > 200 | > 100 | MIC (MDCK [20]): > 100 µg/mL; MIC (MDCK [21]): > 100 µg/mL
NC(CCS)C(=O)Nc1ncnc2c1ncn2C1O[C@H](CO)[C@@H](O)[C@H]1O (some centres undefined) | 0.7 (≈ 1.82 µM) | 2 (≈ 5.2 µM) | > 400 |  | > 400 | > 400 | 2 (≈ 5.2 µM) | 2 (≈ 5.2 µM) | > 400 | > 400 | 0.7 (≈ 1.82 µM) |  | 2 (≈ 5.2 µM) |  |  | 2 (≈ 5.2 µM) | > 400 | > 100 | 20 (≈ 52 µM) |  | 
O=c1[nH]c(=O)n([C@H]2C[C@H](O)[C@@H](CO)O2)cc1/C=C/Br [BRIVUDINE] | > 400 |  |  | > 400 | 10 (≈ 30 µM) | 40 (≈ 120 µM) | 7 (≈ 21 µM) | > 400 | 0.02 (≈ 0.06 µM) | > 400 |  | 0.001 (≈ 0.003 µM) | > 400 | > 10 |  | > 400 | > 400 | > 400 | > 400 | > 400 | 
Nc1ncnc2c1ncn2[C@@H]1C=C(CO)[C@@H](O)[C@H]1O [NEOPLANOCIN A] | 0.2 (≈ 0.76 µM) | 0.4 (≈ 1.52 µM) | > 10 | 0.2 (≈ 0.76 µM) | > 40 | 4 (≈ 15.2 µM) | 0.2 (≈ 0.76 µM) | 0.2 (≈ 0.76 µM) | > 40 | > 40 | 0.4 (≈ 1.52 µM) | 8 (≈ 30.4 µM) | 0.4 (≈ 1.52 µM) | 5 (≈ 19 µM) |  | 0.4 (≈ 1.52 µM) | > 40 | > 40 | > 40 | 0.2 (≈ 0.76 µM) | MIC (MDCK [20]): > 20 µg/mL; MIC (HEL [22]): 0.4 µg/mL (≈ 1.52 µM); MIC (MDCK [21]): > 20 µg/mL
Nc1ncnc2c1ncn2[C@@H]1C[C@H](O)[C@@H](O)[C@H]1O [NORARISTEROMYCIN] | 0.07 (≈ 0.279 µM) | 1 (≈ 3.98 µM) | > 200 | 2 (≈ 7.96 µM) | 300 (≈ 1190 µM) | 20 (≈ 79.6 µM) | 0.3 (≈ 1.19 µM) | 0.07 (≈ 0.279 µM) | 200 (≈ 796 µM) | > 200 | 0.4 (≈ 1.59 µM) | 65 (≈ 259 µM) | 0.07 (≈ 0.279 µM) | 40 (≈ 159 µM) | 0.4 (≈ 1.59 µM) | 0.5 (≈ 1.99 µM) | > 200 | > 200 | > 200 | 0.4 (≈ 1.59 µM) | MIC (MDCK [20]): > 100 µg/mL; MIC (MDCK [21]): > 100 µg/mL
NC(=O)c1ncn([C@@H]2O[C@H](CO)[C@@H](O)[C@H]2O)n1 [RIBAVIRIN] | 70 (≈ 287 µM) |  | 70 (≈ 287 µM) |  | > 400 | > 400 | 40 (≈ 164 µM) | 20 (≈ 81.9 µM) | > 400 | 70 (≈ 287 µM) |  |  | 70 (≈ 287 µM) |  |  |  | 40 (≈ 164 µM) | 100 (≈ 409 µM) | 40 (≈ 164 µM) |  | MIC (Vero [23]): 20 µg/mL (≈ 81.9 µM)
